ChEMBL document CHEMBL3045630, “Predictive QSAR modeling on tetrahydropyrimidine-2-one derivatives as HIV-1 protease enzyme inhibitors” (Med Chem Res, 2013)

Target: Protease (Human immunodeficiency virus 1, UniProt Q9YQ12)
Assay: Inhibition of Human immunodeficiency virus 1 protease

Sequence of Protease (Q9YQ12 whole entry): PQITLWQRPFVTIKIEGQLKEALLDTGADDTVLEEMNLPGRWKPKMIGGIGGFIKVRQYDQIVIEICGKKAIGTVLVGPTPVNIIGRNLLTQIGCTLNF

SMILES	Ki [nM]
N#Cc1cccc(CN2C(=O)NC(CCc3ccccc3)C(O)C2Cc2ccccc2)c1 (centres undefined)	15.1
NC(=O)c1cccc(CN2C(=O)NC(CCc3ccccc3)C(O)C2Cc2ccccc2)c1 (centres undefined)	5.62
NC(=O)c1cccc(CN2C(=O)N(Cc3cccc(C(N)=O)c3)C(Cc3ccc(F)cc3)C(O)C2CCc2ccc(F)cc2)c1 (centres undefined)	0.309
N/C(=N/O)c1cccc(CN2C(=O)NC(CCc3ccccc3)C(O)C2Cc2ccccc2)c1 (centres undefined)	0.24
N/C(=N/O)c1cc(CN2C(=O)N(Cc3ccc(F)c(/C(N)=N\O)c3)C(Cc3ccc(F)c(F)c3)C(O)C2CCc2ccccc2)ccc1F (centres undefined)	0.0603
N/C(=N/O)c1cc(CN2C(=O)NC(CCc3ccccc3)C(O)C2Cc2ccccc2)ccc1F (centres undefined)	1.41
O=C1N(Cc2ccc3[nH]ncc3c2)C(CCc2ccccc2)C(O)C(Cc2ccccc2)N1Cc1ccc2[nH]ncc2c1 (centres undefined)	0.0603
Cc1n[nH]c2ccc(CN3C(=O)NC(CCc4ccccc4)C(O)C3Cc3ccccc3)cc12 (centres undefined)	0.38
Cc1n[nH]c2ccc(CN3C(=O)N(Cc4ccc5[nH]nc(C)c5c4)C(Cc4ccccc4)C(O)C3CCc3ccccc3)cc12 (centres undefined)	0.1
Nc1cccc(CN2C(=O)NC(Cc3ccccc3)C(O)C2CCc2ccccc2)c1 (centres undefined)	6.17
CN1C=CSC1C(=O)Nc1cccc(CN2C(=O)N(Cc3cccc(NC(=O)C4SC=CN4C)c3)C(Cc3ccccc3)C(O)C2CCc2ccccc2)c1 (centres undefined)	0.0302
N#Cc1cc(CN2C(=O)NC(CCc3ccccc3)C(O)C2Cc2ccccc2)ccc1F (centres undefined)	110
N/C(=N/O)c1cccc(CN2C(=O)N(Cc3cccc(/C(N)=N\O)c3)C(Cc3ccc(F)c(F)c3)C(O)C2CCc2ccc(F)c(F)c2)c1 (centres undefined)	0.01
NC(=O)c1cccc(CN2C(=O)N(Cc3cccc(C(N)=O)c3)C(Cc3ccc(F)c(F)c3)C(O)C2CCc2ccc(F)c(F)c2)c1 (centres undefined)	0.151
Nc1n[nH]c2ccc(CN3C(=O)N(Cc4ccc5[nH]nc(N)c5c4)C(Cc4ccccc4)C(O)C3CCc3ccccc3)cc12 (centres undefined)	0.0302
N/C(=N/O)c1cccc(CN2C(=O)N(Cc3cccc(/C(N)=N\O)c3)C(Cc3ccc(F)cc3)C(O)C2CCc2ccc(F)cc2)c1 (centres undefined)	0.02
O=C1NC(Cc2ccccc2)C(O)C(CCc2ccccc2)N1Cc1ccc2cn[nH]c2c1 (centres undefined)	43.7
N#Cc1cccc(CN2C(=O)N(Cc3cccc(C#N)c3)C(Cc3cccc(F)c3)C(O)C2CCc2ccc(F)cc2)c1 (centres undefined)	14.1
O=C1NC(CCc2ccccc2)C(O)C(Cc2ccccc2)N1Cc1ccc2[nH]ncc2c1 (centres undefined)	1.2
Cc1ccc(C(=O)Nc2cccc(CN3C(=O)N(Cc4cccc(NC(=O)c5ccc(C)cn5)c4)C(Cc4ccccc4)C(O)C3CCc3ccccc3)c2)nc1 (centres undefined)	0.0794
NC(=O)c1cc(CN2C(=O)NC(CCc3ccccc3)C(O)C2Cc2ccccc2)ccc1F (centres undefined)	14.1

More lines, now with the values ahead:

Ki [nM]	SMILES
0.251	Nc1cc(CN2C(=O)N(Cc3ccc(F)c(N)c3)C(Cc3ccccc3)C(O)C2CCc2ccccc2)ccc1F (centres undefined)
11	O=C1N(Cc2cccc(CO)c2)C(Cc2ccccc2)C(O)C(C(Br)Cc2ccccc2)N1Cc1cccc(CO)c1 (centres undefined)
0.0794	Nc1cccc(CN2C(=O)N(Cc3ccc4cn[nH]c4c3)C(Cc3ccccc3)C(O)C2CCc2ccccc2)c1 (centres undefined)
0.0603	NC(=O)c1cccc(CN2C(=O)N(Cc3cccc(N)c3)C(Cc3ccccc3)C(O)C2CCc2ccccc2)c1 (centres undefined)
22.9	CNc1cccc(CN2C(=O)N(Cc3cccc(NC)c3)C(Cc3ccccc3)C(O)C2CCc2ccccc2)c1 (centres undefined)
7.94	Nc1ccc(CN2C(=O)N(Cc3ccc(N)c(F)c3)C(Cc3ccccc3)C(O)C2CCc2ccccc2)cc1F (centres undefined)
0.1	Nc1cccc(CN2C(=O)N(Cc3ccc4c(N)n[nH]c4c3)C(CCc3ccccc3)C(O)C2Cc2ccccc2)c1 (centres undefined)
1.58	N#Cc1cccc(CN2C(=O)N(Cc3cccc(N)c3)C(Cc3ccccc3)C(O)C2CCc2ccccc2)c1 (centres undefined)
33.1	N#Cc1cc(CN2C(=O)N(Cc3ccccc3)C(Cc3ccccc3)C(O)C2CCc2ccccc2)ccc1F (centres undefined)
0.912	CC(=O)c1cccc(CN2C(=O)N(Cc3cccc(C(C)=O)c3)C(Cc3ccccc3)C(O)C2CCc2ccccc2)c1 (centres undefined)
12	O=C1N(Cc2cccc(O)c2)C(Cc2ccccc2)C(O)C(C(F)Cc2ccccc2)N1Cc1cccc(O)c1 (centres undefined)
0.129	Cc1n[nH]c2cc(CN3C(=O)N(Cc4cccc(N)c4)C(Cc4ccccc4)C(O)C3CCc3ccccc3)ccc12 (centres undefined)
0.646	Nc1n[nH]c2cc(CN3C(=O)N(Cc4ccccc4)C(Cc4ccccc4)C(O)C3CCc3ccccc3)ccc12 (centres undefined)
66.1	O=C1NC(CCc2ccccc2)C(O)C(Cc2ccccc2)N1Cc1ccccc1 (centres undefined)
0.1	O=C1N(Cc2cccc(-n3cccn3)c2)C(CCc2ccccc2)C(O)C(Cc2ccccc2)N1Cc1cccc(-n2cccn2)c1 (centres undefined)
0.0891	NC(=O)c1cccc(CN2C(=O)N(Cc3cccc(C(N)=O)c3)C(Cc3ccccc3)C(O)C2CCc2ccccc2)c1 (centres undefined)
1.7	Nc1cccc(CN2C(=O)N(Cc3cccc(N)c3)C(Cc3ccccc3)C(O)C2CCc2ccccc2)c1 (centres undefined)
39.8	N#Cc1cc(CN2C(=O)N(Cc3ccccc3)C(CCc3ccccc3)C(O)C2Cc2ccccc2)ccc1F (centres undefined)
0.282	Nc1n[nH]c2ccc(CN3C(=O)N(Cc4ccccc4)C(CCc4ccccc4)C(O)C3Cc3ccccc3)cc12 (centres undefined)
15.1	O=C1N(Cc2ccccc2)C(CCc2ccccc2)C(O)C(Cc2ccccc2)N1Cc1ccccc1 (centres undefined)
158	Nc1cccc(CN2C(=O)NC(CCc3ccccc3)C(O)C2Cc2ccccc2)c1 (centres undefined)
11	N#Cc1cccc(CN2C(=O)N(Cc3cccc(C#N)c3)C(Cc3ccccc3)C(O)C2CCc2ccccc2)c1 (centres undefined)
186	O=C1N(Cc2ccccc2)C(Cc2ccccc2)C(O)C(C(Br)Cc2ccccc2)N1Cc1ccccc1 (centres undefined)
